These results are taken from ChEMBL document CHEMBL1140236, “Aminoalkoxybenzyl pyrrolidines as novel human urotensin-II receptor antagonists” (Bioorg Med Chem Lett, 2005).

By IC50 is commonly meant the midpoint of a concentration-inhibition curve. The Ki is the dissociation constant of the complex between target and ligand, obtained from inhibition or displacement.

One test addresses T1, Urotensin-2 receptor (Homo sapiens, UniProt Q9UKP6).
T1 sequence (Q9UKP6 whole entry): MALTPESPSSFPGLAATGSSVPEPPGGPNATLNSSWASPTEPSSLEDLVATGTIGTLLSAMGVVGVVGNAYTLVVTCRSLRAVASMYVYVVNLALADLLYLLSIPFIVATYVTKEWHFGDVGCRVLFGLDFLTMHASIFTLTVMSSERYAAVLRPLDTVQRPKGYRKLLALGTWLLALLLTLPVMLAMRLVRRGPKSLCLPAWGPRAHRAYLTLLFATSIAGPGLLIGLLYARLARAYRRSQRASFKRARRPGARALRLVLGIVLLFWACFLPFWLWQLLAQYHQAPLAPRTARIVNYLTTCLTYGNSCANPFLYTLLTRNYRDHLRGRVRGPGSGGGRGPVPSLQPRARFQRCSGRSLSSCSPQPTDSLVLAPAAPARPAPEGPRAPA
Nature of the test: (§1) Inhibition of hU-II-mediated [Ca2+]i mobilization in HEK293 cells expressing human recombinant Urotensin 2 receptor in FLIPR assay. The format is functional, cell-based.
As to `CC(C)C[C@H](NC(=O)c1cc2ccccc2s1)C(=O)NC1CCN(Cc2ccc(OCCCN(C)C)cc2)C1` (single isomer, unassigned; 2a), the IC50 is 631 nM.

The target in a further test is T1, Urotensin-2 receptor. The test is described as §1. The format is cell-based.
On to `CN(C)CCCOc1ccc(CN2CC[C@H](NC(=O)c3ccc(Cl)c(Cl)c3)C2)cc1`, for which the IC50 is 158 nM.

The target in a further test is T2, Urotensin-2 receptor (Macaca mulatta, UniProt Q8HYC3).
T2 sequence (Q8HYC3 whole entry): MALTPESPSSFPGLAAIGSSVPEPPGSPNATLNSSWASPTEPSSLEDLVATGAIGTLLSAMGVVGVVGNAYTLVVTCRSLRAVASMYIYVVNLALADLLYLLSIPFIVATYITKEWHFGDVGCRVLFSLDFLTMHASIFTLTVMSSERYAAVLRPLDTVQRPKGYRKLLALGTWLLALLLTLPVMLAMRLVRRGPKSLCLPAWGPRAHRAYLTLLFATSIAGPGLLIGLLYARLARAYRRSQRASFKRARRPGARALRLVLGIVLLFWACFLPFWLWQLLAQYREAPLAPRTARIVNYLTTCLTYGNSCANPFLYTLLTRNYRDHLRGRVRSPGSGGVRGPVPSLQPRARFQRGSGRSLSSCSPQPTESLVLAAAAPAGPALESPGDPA
Nature of the test: Binding affinity for monkey urotensin-2 receptor.
The compound `CN(C)CCCOc1ccc(CN2CC[C@H](NC(=O)c3ccc(Cl)c(Cl)c3)C2)cc1` showed a Ki of 251 nM.

Another test has as its target T1, Urotensin-2 receptor. Nature of the test: Binding affinity using [125I]hU-II radioligand binding assay in HEK293 cell membranes expressing human Urotensin 2 receptor.
For `CN(C)CCCOc1ccc(CN2CC[C@H](NC(=O)c3ccc4c(c3)OCO4)C2)cc1`, the inhibition constant (Ki) is 2510 nM. Still for that read-out and setting: in the case of `CC(C)[C@H](NC(=O)c1ccc(Cl)c(Cl)c1)C(=O)N[C@H]1CCN(Cc2ccc(OCCCN(C)C)cc2)C1` it was 794 nM. Same read-out and setting: in the case of `CN(C)CCCOc1ccc(CN2CC[C@H](NC(=O)c3ccncc3)C2)cc1` it was above 10000 nM; in that of `CN(C)CCCOc1ccc(CN2CC[C@H](NC(=O)c3cc(Cl)cc(Cl)c3)C2)cc1`, 2000 nM; in that of `CN(C)CCCOc1ccc(CN2CC[C@H](NC(=O)c3ccco3)C2)cc1`, above 10000 nM. Still for that read-out and setting: in the case of `COc1ccc(C(=O)N[C@H]2CCN(Cc3ccc(OCCCN(C)C)cc3)C2)cc1OC` it was above 10000 nM. On to `CN(C)CCCOc1ccc(CN2CC[C@H](NC(=O)c3ccc(-c4ccccc4)cc3)C2)cc1`, for which the Ki was above 10000 nM. Same read-out and setting: in the case of `CC(C)C[C@H](NC(=O)Nc1ccccc1)C(=O)N[C@H]1CCN(Cc2ccc(OCCCN(C)C)cc2)C1` it was 1000 nM; in that of `CC(=O)N[C@H]1CCN(Cc2ccc(OCCCN(C)C)cc2)C1`, above 10000 nM; in that of `CC(C)C[C@H](NC(=O)c1cc2ccccc2[nH]1)C(=O)N[C@H]1CCN(Cc2ccc(OCCCN(C)C)cc2)C1`, 501 nM. Same read-out and setting: in the case of `CC(C)C[C@H](NC(=O)c1ccc(Br)cc1)C(=O)N[C@H]1CCN(Cc2ccc(OCCCN(C)C)cc2)C1` it was 200 nM; in that of `CN(C)CCCOc1ccc(CN2CC[C@H](NC(=O)CNC(=O)c3ccc(Cl)c(Cl)c3)C2)cc1`, above 10000 nM; in that of `Cc1ccc(C(=O)N[C@H]2CCN(Cc3ccc(OCCCN(C)C)cc3)C2)cc1C`, above 10000 nM. On the same count and under the same terms, in the case of `CC(C)C[C@H](NC(=O)c1ccc(Cl)c(Cl)c1)C(=O)N[C@H]1CCN(Cc2ccc(OCCCN(C)C)cc2)C1` it was 126 nM. The compound `CC(C)C[C@H](NC(=O)c1ccc2c(c1)OCO2)C(=O)N[C@H]1CCN(Cc2ccc(OCCCN(C)C)cc2)C1` gave a Ki of 501 nM. Same read-out and setting: in the case of `CN(C)CCCOc1ccc(CN2CC[C@H](NC(=O)c3cccs3)C2)cc1` it was above 10000 nM; in that of `CN(C)CCCOc1ccc(CN2CC[C@H](NC(=O)c3ccc(C(F)(F)F)cc3)C2)cc1`, above 10000 nM. Still for that read-out and setting: in the case of `CN(C)CCCOc1ccc(CN2CC[C@H](NC(=O)c3ccc(C#N)cc3)C2)cc1` it was above 10000 nM; in that of `CC(C)C[C@H](NC(=O)c1ccc2ccccc2n1)C(=O)N[C@H]1CCN(Cc2ccc(OCCCN(C)C)cc2)C1`, 631 nM; in that of `CC(C)C[C@H](NC(=O)Cc1ccc2c(c1)OCO2)C(=O)N[C@H]1CCN(Cc2ccc(OCCCN(C)C)cc2)C1`, 398 nM. On the same count and under the same terms, in the case of `Cc1cc(C(=O)N[C@H]2CCN(Cc3ccc(OCCCN(C)C)cc3)C2)ccc1Cl` it was 631 nM. `CN(C)CCCOc1ccc(CN2CC[C@H](NC(=O)c3ccc4ccccc4c3)C2)cc1`: the inhibitory constant (Ki) is above 10000 nM. On the same count and under the same terms, in the case of `CN(C)CCCOc1ccc(CN2CC[C@H](NC(=O)c3ccc(Br)cc3)C2)cc1` it was 316 nM; in that of `Cc1cc(C(=O)N[C@H]2CCN(Cc3ccc(OCCCN(C)C)cc3)C2)ccc1Br`, 631 nM; in that of `CC(C)C[C@H](NC(=O)c1ccccc1)C(=O)N[C@H]1CCN(Cc2ccc(OCCCN(C)C)cc2)C1`, 501 nM. Still for that read-out and setting: in the case of `CC(C)C[C@H](NC(=O)c1cccs1)C(=O)N[C@H]1CCN(Cc2ccc(OCCCN(C)C)cc2)C1` it was 398 nM; in that of `CN(C)CCCOc1ccc(CN2CC[C@H](NC(=O)c3ccc(Cl)c(Cl)c3)C2)cc1`, 200 nM. Same read-out and setting: in the case of `CN(C)CCCOc1ccc(CN2CC[C@H](NC(=O)[C@H](CCC(=O)O)NC(=O)c3ccc(Cl)c(Cl)c3)C2)cc1` it was above 10000 nM. `CN(C)CCCOc1ccc(CN2CC[C@H](NC(=O)[C@H](Cc3ccccc3)NC(=O)c3ccc(Cl)c(Cl)c3)C2)cc1` showed a Ki of 398 nM. Still for that read-out and setting: in the case of `CN(C)CCCOc1ccc(CN2CC[C@H](NC(=O)[C@H](CCCCN)NC(=O)c3ccc(Cl)c(Cl)c3)C2)cc1` it was above 10000 nM; in that of `CC(C)C[C@H](NC(=O)Oc1ccccc1)C(=O)N[C@H]1CCN(Cc2ccc(OCCCN(C)C)cc2)C1`, 251 nM; in that of `CC(C)C[C@H](NC(=O)c1ccco1)C(=O)N[C@H]1CCN(Cc2ccc(OCCCN(C)C)cc2)C1`, 631 nM. With `CN(C)CCCOc1ccc(CN2CC[C@H](NC(=O)c3ccccc3)C2)cc1`, the Ki was 2510 nM. The same measure, in the same setting: in the case of `CC(=O)N[C@@H](CC(C)C)C(=O)N[C@H]1CCN(Cc2ccc(OCCCN(C)C)cc2)C1` it was 2510 nM. Same read-out and setting: in the case of `CN(C)CCCOc1ccc(CN2CC[C@H](NC(=O)c3cc4ccccc4o3)C2)cc1` it was 2510 nM. Take `CC(C)C[C@H](NC(=O)c1ccncc1)C(=O)N[C@H]1CCN(Cc2ccc(OCCCN(C)C)cc2)C1`: affinity was put at a Ki of 2000 nM.

For the compound `CC(C)C[C@@H](NC(=O)c1cc2ccccc2o1)C(=O)NC1CCN(Cc2ccc(OCCCN(C)C)cc2)C1` (single isomer, unassigned), the Ki is 3160 nM. Still for that read-out and setting: in the case of `CC(C)C[C@H](NC(=O)c1cc2ccccc2s1)C(=O)NC1CCN(Cc2ccc(OCCCN(C)C)cc2)C1` (single isomer, unassigned; 2a) it was 126 nM; in that of `CC(C)C[C@H](NC(=O)c1cc2ccccc2s1)C(=O)NC1CCN(Cc2ccc(OCCCN(C)C)cc2)C1` (single isomer, unassigned; 2b), above 10000 nM. On the same count and under the same terms, in the case of `CC(C)C[C@H](NC(=O)c1cc2ccccc2o1)C(=O)NC1CCN(Cc2ccc(OCCCN(C)C)cc2)C1` (single isomer, unassigned; 2c) it was 158 nM. Still for that read-out and setting: in the case of `CC(C)C[C@H](NC(=O)c1cc2ccccc2o1)C(=O)NC1CCN(Cc2ccc(OCCCN(C)C)cc2)C1` (single isomer, unassigned; 2d) it was above 10000 nM.

A further test deals with T3, Urotensin-2 receptor (Rattus norvegicus, UniProt P49684).
T3 sequence (P49684 whole entry): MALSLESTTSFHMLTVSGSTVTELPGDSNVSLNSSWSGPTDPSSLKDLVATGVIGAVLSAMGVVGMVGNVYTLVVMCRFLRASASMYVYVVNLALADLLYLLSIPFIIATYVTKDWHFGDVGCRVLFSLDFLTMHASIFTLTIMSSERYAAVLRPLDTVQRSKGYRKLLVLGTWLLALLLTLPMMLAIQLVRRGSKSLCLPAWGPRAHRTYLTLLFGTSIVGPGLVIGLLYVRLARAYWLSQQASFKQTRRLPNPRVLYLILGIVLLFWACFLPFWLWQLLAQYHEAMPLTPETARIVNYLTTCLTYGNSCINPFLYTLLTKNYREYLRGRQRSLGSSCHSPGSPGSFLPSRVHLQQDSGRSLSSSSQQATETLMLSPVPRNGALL
The test can be described thus: Binding affinity for rat urotensin-2 receptor.
Take `CN(C)CCCOc1ccc(CN2CC[C@H](NC(=O)c3ccc(Cl)c(Cl)c3)C2)cc1`: the Ki was 3.16 µM.
